# How the values were obtained:
# Assay in all cases: KINOMEscan
# Type in all cases: binding
# Conditions in all cases: read-out: Remaining enzyme activity
# [1] = target: T1, MET(M1250T) (Homo sapiens, UniProt P08581, M1250T)
# T1 construct: purchased Ambit (DiscoverX) KINOMEscan; Cerep
# Experimental: (§1) The KINOMEscan was carried out by Ambit (San Diego, USA) according to a previously established protocol. The experiment was based on a competition binding assay that quantitatively measures the ability of a compound to compete with an immobilized, active-site directed ligand. The assay is performed by combining three components: DNA-tagged kinase; immobilized ligand; and a test compound. The ability of the test compound to compete with the immobilized ligand is measured via quantitative PCR of the DNA tag.
# (§2) For most assays, kinase-tagged T7 phage strains were grown in parallel in 24-well blocks in an Escherichia coli host derived from the BL21 strain. E. coli were grown to log-phase and infected with T7 phage from a frozen stock and incubated with shaking at 32 °C until lysis (90–150 min). The lysates were centrifuged (6,000g) and filtered (0.2 μm) to remove cell debris. The remaining kinases were produced in HEK-293 cells (Sigma Aldrich, catalogue number: 85120602) and subsequently tagged with DNA for quantitative PCR detection. […] The liganded beads were blocked with excess biotin and washed with blocking buffer (SeaBlock (Pierce), 1% bovine serum albumin, 0.05% Tween 20 and 1 mM dithiothreitol) to remove unbound ligand and to reduce non-specific phage binding. […] SC81458 was prepared as 40x stock in 100% DMSO and directly diluted into the assay to a final concentration of 10 μM. All reactions were performed in polypropylene 384-well plates in a final volume of 0.04 ml. […] The kinase concentration in the eluates was measured by quantitative PCR.
# [2] = target: T2, GAK (Homo sapiens, UniProt O14976)
# T2 construct: purchased Ambit (DiscoverX) KINOMEscan; Cerep
# Experimental: as §1, §2
# [3] = target: T3, EGFR(L858R, T790M) (Homo sapiens, UniProt P00533, L858R/T790M)
# T3 construct: purchased Ambit (DiscoverX) KINOMEscan; Cerep
# Experimental: as §1, §2
# [4] = target: T4, PCTK1 (Homo sapiens, UniProt Q00536)
# T4 construct: purchased Ambit (DiscoverX) KINOMEscan; Cerep
# Experimental: as §1, §2
# [5] = target: T5, CAMK1 (Homo sapiens, UniProt Q14012)
# T5 construct: purchased Ambit (DiscoverX) KINOMEscan; Cerep
# Experimental: as §1, §2
# [6] = target: T6, NLK (Homo sapiens, UniProt Q9UBE8)
# T6 construct: purchased Ambit (DiscoverX) KINOMEscan; Cerep
# Experimental: as §1, §2
# [7] = target: T7, ULK3 (Homo sapiens, UniProt Q6PHR2)
# T7 construct: purchased Ambit (DiscoverX) KINOMEscan; Cerep
# Experimental: as §1, §2
# [8] = target: T8, PIK3CA(C420R) (Homo sapiens, UniProt P42336, C420R)
# T8 construct: purchased Ambit (DiscoverX) KINOMEscan; Cerep
# Experimental: as §1, §2
# [9] = target: T9, EPHA7 (Homo sapiens, UniProt Q15375)
# T9 construct: purchased Ambit (DiscoverX) KINOMEscan; Cerep
# Experimental: as §1, §2
# [10] = target: T10, EPHA3 (Homo sapiens, UniProt P29320)
# T10 construct: purchased Ambit (DiscoverX) KINOMEscan; Cerep
# Experimental: as §1, §2
# [11] = target: T11, RPS6KA4(Kin.Dom.2-C-term) (Homo sapiens, UniProt O75676)
# T11 construct: RPS6KA4(Kin.Dom.2-C-term); purchased Ambit (DiscoverX) KINOMEscan; Cerep
# Experimental: as §1, §2
# [12] = target: T12, TNNI3K (Homo sapiens, UniProt Q59H18)
# T12 construct: purchased Ambit (DiscoverX) KINOMEscan; Cerep
# Experimental: as §1, §2
# [13] = target: T13, PRKCD (Homo sapiens, UniProt Q05655)
# T13 construct: purchased Ambit (DiscoverX) KINOMEscan; Cerep
# Experimental: as §1, §2
# [14] = target: T14, ULK2 (Homo sapiens, UniProt Q8IYT8)
# T14 construct: purchased Ambit (DiscoverX) KINOMEscan; Cerep
# Experimental: as §1, §2
# [15] = target: T15, ABL1(F317L) (Homo sapiens, UniProt P00519, F317L)
# T15 construct: purchased Ambit (DiscoverX) KINOMEscan; Cerep
# Experimental: as §1, §2
# [16] = target: T16, RPS6KA6(Kin.Dom.2-C-term) (Homo sapiens, UniProt Q9UK32)
# T16 construct: RPS6KA6(Kin.Dom.2-C-term); purchased Ambit (DiscoverX) KINOMEscan; Cerep
# Experimental: as §1, §2
# [17] = target: T17, SRPK1 (Homo sapiens, UniProt Q96SB4)
# T17 construct: purchased Ambit (DiscoverX) KINOMEscan; Cerep
# Experimental: as §1, §2
# [18] = target: T18, DYRK2 (Homo sapiens, UniProt Q92630)
# T18 construct: purchased Ambit (DiscoverX) KINOMEscan; Cerep
# Experimental: as §1, §2
# [19] = target: T19, EGFR(E46-A750del) (Homo sapiens, UniProt P00533, DEL746-750)
# T19 construct: purchased Ambit (DiscoverX) KINOMEscan; Cerep
# Experimental: as §1, §2
# [20] = target: T20, EPHA4 (Homo sapiens, UniProt P54764)
# T20 construct: purchased Ambit (DiscoverX) KINOMEscan; Cerep
# Experimental: as §1, §2
# [21] = target: T21, RPS6KA6(Kin.Dom.1-N-term) (Homo sapiens, UniProt Q9UK32)
# T21 construct: RPS6KA6(Kin.Dom.1-N-term); purchased Ambit (DiscoverX) KINOMEscan; Cerep
# Experimental: as §1, §2
# [22] = target: T22, CDK7 (Homo sapiens, UniProt P50613)
# T22 construct: purchased Ambit (DiscoverX) KINOMEscan; Cerep
# Experimental: as §1, §2
# [23] = target: T23, RPS6KA2(Kin.Dom.1-N-term) (Homo sapiens, UniProt Q15349)
# T23 construct: RPS6KA2(Kin.Dom.1-N-term); purchased Ambit (DiscoverX) KINOMEscan; Cerep
# Experimental: as §1, §2
# [24] = target: T24, ASK2 (Homo sapiens, UniProt O95382)
# T24 construct: purchased Ambit (DiscoverX) KINOMEscan; Cerep
# Experimental: as §1, §2
# [25] = target: T25, AKT3 (Homo sapiens, UniProt Q9Y243)
# T25 construct: purchased Ambit (DiscoverX) KINOMEscan; Cerep
# Experimental: as §1, §2
# [26] = target: T26, RIOK3 (Homo sapiens, UniProt O14730)
# T26 construct: purchased Ambit (DiscoverX) KINOMEscan; Cerep
# Experimental: as §1, §2
# [27] = target: T27, PKN1 (Homo sapiens, UniProt Q16512)
# T27 construct: purchased Ambit (DiscoverX) KINOMEscan; Cerep
# Experimental: as §1, §2
# [28] = target: T28, MYLK (Homo sapiens, UniProt Q15746)
# T28 construct: purchased Ambit (DiscoverX) KINOMEscan; Cerep
# Experimental: as §1, §2
# [29] = target: T29, TEC (Homo sapiens, UniProt P42680)
# T29 construct: purchased Ambit (DiscoverX) KINOMEscan; Cerep
# Experimental: as §1, §2
# [30] = target: T30, CSNK1d (Homo sapiens, UniProt P48730)
# T30 construct: purchased Ambit (DiscoverX) KINOMEscan; Cerep
# Experimental: as §1, §2
# T17 sequence (Q96SB4 whole entry): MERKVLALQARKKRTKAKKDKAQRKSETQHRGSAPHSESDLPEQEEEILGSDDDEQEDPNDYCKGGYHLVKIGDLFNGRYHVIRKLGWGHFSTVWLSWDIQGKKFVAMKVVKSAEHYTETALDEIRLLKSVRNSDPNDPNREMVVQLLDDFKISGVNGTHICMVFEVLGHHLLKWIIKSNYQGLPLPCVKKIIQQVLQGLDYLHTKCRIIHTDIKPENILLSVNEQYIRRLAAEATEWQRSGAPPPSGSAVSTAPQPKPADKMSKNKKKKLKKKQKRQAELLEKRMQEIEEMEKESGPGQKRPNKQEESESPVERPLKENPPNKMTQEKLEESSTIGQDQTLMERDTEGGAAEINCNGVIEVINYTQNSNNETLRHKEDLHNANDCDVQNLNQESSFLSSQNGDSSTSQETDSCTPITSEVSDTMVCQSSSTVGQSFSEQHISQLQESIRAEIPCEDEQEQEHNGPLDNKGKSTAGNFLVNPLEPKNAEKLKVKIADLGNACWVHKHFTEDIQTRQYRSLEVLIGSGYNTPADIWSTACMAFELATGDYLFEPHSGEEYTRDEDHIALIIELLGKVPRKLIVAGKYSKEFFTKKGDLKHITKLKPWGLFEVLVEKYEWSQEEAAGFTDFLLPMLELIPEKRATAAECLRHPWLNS
# T12 sequence (Q59H18 whole entry): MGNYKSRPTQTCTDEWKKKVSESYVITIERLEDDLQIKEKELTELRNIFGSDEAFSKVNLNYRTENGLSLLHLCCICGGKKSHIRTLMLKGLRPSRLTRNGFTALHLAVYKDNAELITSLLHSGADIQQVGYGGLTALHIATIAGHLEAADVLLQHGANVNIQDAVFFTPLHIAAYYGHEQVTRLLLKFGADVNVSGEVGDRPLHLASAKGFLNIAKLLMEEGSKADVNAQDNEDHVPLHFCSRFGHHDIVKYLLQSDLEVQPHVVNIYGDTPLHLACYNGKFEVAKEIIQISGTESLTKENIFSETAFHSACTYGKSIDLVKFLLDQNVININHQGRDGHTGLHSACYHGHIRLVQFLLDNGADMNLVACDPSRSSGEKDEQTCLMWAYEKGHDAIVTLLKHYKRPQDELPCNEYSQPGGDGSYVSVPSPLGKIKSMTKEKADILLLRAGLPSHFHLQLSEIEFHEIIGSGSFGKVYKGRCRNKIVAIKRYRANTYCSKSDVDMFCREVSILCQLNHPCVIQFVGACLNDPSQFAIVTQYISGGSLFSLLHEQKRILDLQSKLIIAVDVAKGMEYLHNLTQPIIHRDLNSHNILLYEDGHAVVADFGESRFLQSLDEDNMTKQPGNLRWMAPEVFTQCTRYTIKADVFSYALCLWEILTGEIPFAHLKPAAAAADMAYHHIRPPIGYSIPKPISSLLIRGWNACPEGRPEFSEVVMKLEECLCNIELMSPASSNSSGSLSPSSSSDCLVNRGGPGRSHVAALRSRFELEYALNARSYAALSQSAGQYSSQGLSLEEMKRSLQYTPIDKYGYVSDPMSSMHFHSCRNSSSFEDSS
# T6 sequence (Q9UBE8 whole entry): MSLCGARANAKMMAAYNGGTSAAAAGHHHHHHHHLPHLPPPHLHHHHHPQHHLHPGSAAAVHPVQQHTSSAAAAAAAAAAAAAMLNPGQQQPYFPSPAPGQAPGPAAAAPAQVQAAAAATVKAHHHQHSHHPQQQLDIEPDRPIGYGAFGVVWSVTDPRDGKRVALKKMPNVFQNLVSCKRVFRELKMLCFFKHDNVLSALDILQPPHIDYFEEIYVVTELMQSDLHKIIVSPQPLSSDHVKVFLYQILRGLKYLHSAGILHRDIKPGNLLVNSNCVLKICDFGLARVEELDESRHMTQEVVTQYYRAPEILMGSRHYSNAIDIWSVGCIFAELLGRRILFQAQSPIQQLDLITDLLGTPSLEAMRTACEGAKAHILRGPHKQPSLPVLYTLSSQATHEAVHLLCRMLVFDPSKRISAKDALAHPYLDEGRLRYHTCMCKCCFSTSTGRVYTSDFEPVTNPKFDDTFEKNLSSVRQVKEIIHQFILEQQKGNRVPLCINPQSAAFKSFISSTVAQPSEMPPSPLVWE
# T27 sequence (Q16512 whole entry): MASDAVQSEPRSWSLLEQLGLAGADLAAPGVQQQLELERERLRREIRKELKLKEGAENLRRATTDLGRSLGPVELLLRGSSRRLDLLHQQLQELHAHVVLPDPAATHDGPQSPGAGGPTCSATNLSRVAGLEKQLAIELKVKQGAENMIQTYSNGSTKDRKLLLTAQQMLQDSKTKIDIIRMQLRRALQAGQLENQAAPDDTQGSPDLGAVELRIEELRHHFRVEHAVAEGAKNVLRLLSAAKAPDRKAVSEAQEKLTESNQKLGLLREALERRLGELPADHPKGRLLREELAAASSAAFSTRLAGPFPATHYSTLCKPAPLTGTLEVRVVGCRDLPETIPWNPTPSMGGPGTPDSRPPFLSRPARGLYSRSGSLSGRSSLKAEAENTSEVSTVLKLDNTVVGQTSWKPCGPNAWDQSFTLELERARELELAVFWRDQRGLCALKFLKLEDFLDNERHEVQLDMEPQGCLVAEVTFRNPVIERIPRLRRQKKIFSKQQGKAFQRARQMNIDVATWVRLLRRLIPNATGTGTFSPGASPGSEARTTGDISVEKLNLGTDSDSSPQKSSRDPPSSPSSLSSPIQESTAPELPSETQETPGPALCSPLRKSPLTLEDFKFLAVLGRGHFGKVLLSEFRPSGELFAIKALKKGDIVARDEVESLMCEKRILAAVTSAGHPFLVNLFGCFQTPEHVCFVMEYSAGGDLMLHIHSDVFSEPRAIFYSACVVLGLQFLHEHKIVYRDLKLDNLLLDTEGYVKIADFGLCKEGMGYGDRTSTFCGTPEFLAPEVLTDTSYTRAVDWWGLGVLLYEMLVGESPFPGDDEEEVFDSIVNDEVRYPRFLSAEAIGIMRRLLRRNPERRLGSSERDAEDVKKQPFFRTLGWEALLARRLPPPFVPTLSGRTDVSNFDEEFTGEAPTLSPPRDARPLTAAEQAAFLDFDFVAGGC
# T9 sequence (Q15375 28-998): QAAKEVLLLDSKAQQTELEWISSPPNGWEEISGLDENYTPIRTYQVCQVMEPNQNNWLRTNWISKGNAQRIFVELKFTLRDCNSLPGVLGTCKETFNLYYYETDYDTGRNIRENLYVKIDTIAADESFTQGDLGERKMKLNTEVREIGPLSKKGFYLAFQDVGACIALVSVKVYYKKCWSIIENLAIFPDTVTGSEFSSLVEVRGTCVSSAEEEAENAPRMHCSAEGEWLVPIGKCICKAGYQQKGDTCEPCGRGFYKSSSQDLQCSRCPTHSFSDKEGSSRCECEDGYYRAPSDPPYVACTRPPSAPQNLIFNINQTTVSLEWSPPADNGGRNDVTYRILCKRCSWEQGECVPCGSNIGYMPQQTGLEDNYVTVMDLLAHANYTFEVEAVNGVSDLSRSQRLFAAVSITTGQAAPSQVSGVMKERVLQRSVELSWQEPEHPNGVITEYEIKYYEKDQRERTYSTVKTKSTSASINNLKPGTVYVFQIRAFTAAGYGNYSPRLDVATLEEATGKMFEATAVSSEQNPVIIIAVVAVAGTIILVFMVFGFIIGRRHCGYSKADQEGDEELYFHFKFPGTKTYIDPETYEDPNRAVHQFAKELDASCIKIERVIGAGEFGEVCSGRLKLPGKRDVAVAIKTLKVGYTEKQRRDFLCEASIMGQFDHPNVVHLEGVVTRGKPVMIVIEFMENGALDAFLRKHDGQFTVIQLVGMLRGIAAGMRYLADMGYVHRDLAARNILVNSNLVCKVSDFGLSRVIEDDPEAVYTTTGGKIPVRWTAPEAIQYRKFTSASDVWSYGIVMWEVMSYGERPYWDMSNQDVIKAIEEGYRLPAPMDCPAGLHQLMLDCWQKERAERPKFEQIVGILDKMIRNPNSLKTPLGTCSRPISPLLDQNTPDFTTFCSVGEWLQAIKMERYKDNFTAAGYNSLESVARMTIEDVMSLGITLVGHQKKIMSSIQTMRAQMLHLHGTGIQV
# T5 sequence (Q14012 whole entry): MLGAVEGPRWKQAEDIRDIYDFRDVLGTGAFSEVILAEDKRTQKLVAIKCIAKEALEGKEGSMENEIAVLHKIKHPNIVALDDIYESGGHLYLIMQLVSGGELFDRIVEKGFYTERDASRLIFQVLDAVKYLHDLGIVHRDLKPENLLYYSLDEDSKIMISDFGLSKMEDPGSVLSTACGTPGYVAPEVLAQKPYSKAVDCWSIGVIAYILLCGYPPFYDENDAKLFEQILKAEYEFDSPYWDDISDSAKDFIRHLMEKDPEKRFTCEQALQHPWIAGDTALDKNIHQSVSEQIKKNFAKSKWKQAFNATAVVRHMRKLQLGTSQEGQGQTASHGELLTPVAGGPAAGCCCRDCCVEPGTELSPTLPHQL
# T30 sequence (P48730 whole entry): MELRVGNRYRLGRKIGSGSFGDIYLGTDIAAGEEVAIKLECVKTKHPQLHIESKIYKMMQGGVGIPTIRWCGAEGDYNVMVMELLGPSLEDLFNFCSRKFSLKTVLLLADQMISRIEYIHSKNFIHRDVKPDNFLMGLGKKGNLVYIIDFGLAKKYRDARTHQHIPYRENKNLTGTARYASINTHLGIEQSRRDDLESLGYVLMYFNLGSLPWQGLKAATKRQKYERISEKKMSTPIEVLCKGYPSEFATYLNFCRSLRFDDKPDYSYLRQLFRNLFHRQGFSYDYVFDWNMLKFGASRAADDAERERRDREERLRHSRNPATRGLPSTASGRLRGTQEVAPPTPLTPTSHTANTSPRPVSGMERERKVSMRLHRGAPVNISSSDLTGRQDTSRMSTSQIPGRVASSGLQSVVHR
# T16 sequence (Q9UK32 426-683 limits assumed): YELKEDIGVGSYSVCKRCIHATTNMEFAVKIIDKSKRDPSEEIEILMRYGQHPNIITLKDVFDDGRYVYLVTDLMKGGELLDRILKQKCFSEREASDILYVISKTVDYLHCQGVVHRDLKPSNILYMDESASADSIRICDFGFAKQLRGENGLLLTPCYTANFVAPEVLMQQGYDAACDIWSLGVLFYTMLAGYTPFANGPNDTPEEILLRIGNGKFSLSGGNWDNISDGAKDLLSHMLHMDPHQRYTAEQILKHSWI
smiles,measurement,setting,value
"CCCCN1CCN(C(=N)c2cccc(NC(=O)Nc3ccc(S(=O)(=O)NCc4ccc(S(N)(=O)=O)cc4)cc3)c2)CC1 [SC81458, 4-(3-(3-((4-butylpiperazin-1-yl)(imino)methyl)phenyl)ureido)-N-(4-sulfamoylbenzyl) benzenesulfonamide]",remaining binding at 10 µM,[1],100%
same,remaining binding at 10 µM,[2],92%
same,remaining binding at 10 µM,[3],100%
same,remaining binding at 10 µM,[4],92%
same,remaining binding at 10 µM,[5],82%
same,remaining binding at 10 µM,[6],95%
same,remaining binding at 10 µM,[7],73%
same,remaining binding at 10 µM,[8],100%
same,remaining binding at 10 µM,[9],81%
same,remaining binding at 10 µM,[10],100%
same,remaining binding at 10 µM,[11],92%
same,remaining binding at 10 µM,[12],100%
same,remaining binding at 10 µM,[13],100%
same,remaining binding at 10 µM,[14],100%
same,remaining binding at 10 µM,[15],100%
same,remaining binding at 10 µM,[16],100%
same,remaining binding at 10 µM,[17],100%
same,remaining binding at 10 µM,[18],100%
same,remaining binding at 10 µM,[19],96%
same,remaining binding at 10 µM,[20],98%
same,remaining binding at 10 µM,[21],68%
same,remaining binding at 10 µM,[22],100%
same,remaining binding at 10 µM,[23],100%
same,remaining binding at 10 µM,[24],100%
same,remaining binding at 10 µM,[25],66%
same,remaining binding at 10 µM,[26],77%
same,remaining binding at 10 µM,[27],100%
same,remaining binding at 10 µM,[28],95%
same,remaining binding at 10 µM,[29],90%
same,remaining binding at 10 µM,[30],100%
